Assays:
K562 cells = experiment: Inhibitory effect of compounds on proliferation of K562 cells (CCK-8); type: cell-based; details: Homo sapiens, 72 h with compound, CCK-8, 5% serum
Method: K562 cells in logarithmic growth phase and good cell condition were added to a centrifuge tube and centrifuged at 1000 rpm for 5 min in a low speed centrifuge. […] The cells were seeded on a 96-well plate at 100 µL/well using a multi-channel pipette and cultured in a cell incubator at 37° ° C. 5% CO2 and saturated humidity. […] Inhibition rate (%)=(mean value of negative control group−mean value of experimental group)/(mean value of negative control group−mean value of blank group)×100%. A dose-response curve was fitted by four-parameter analysis, with the logarithm of compound concentration serving as abscissa and inhibition rate serving as ordinate, such that IC50 was calculated.

[1] = target: T1, Ba/F3-BCR-ABL1-T315I-C3 cells (Homo sapiens, UniProt P00519, T315I, cells depend on it); experiment: Inhibitory effect of compounds on proliferation of BCR-ABL T315I-transfected Ba/F3 cells (CCK-8); type: cell-based; details: 72 h with compound, CCK-8, 5% serum, read-out: IC50 (nM) Ba/F3-BCR-ABL1 T315I
T1 construct: fused on or other part: P11274 (Breakpoint cluster region protein)
Method: Ba/F3-BCR-ABL1-T315I-C3 cells in logarithmic growth phase and good cell condition were added to a centrifuge tube and centrifuged at 1000 rpm for 5 min in a low speed centrifuge. The supernatant was discarded, and 5 mL of complete medium (RPMI 1640 basic medium+10% FBS) was added using a pipette for cell resuspension. The cells were counted using a cell counter, diluted with complete medium to a cell density of 6×10^4 cells/mL, and an equivalent amount of RPMI 1640 basic medium was added to adjust the serum concentration to 5% and the cell density to 3×10^4 cells/mL for plate seeding. The cells were seeded on a 96-well plate at 100 μL/well using a multi-channel pipette and cultured in a cell incubator at 37° C. 5% CO2 and saturated humidity. After 24 h incubation, compounds were loaded using a nanoliter pipettor, 8 concentrations (1000 nM, 250 nM, 63 nM, 16 nM, 3.9 nM, 0.98 nM, 0.24 nM, 0.061 nM) were set for each compound, and 2 replicate wells were set for each concentration; cells with no compounds added were taken as a negative control, and a plating medium with no cells added was taken as a blank control. After 72 h. […] Inhibition rate (%)=(mean value of negative control group−mean value of experimental group)/(mean value of negative control group−mean value of blank group)×100%. A dose-response curve was fitted by four-parameter analysis, with the logarithm of compound concentration serving as abscissa and inhibition rate serving as ordinate, such that ICso was calculated.

| IC50 (K562 cells) [nM] | GI50 [1] [nM] | SMILES |
| --- | --- | --- |
| 16 | 21 | Cn1ccc(-c2cc(C(=O)Nc3ccc(OC(F)(F)Cl)cc3)cnc2N2CC[C@H](Cl)C2)cc1=O [Compound 4] |
| 16 | 28 | Cn1ccc(-c2cc(C(=O)Nc3ccc(OC(F)(F)Cl)cc3)cnc2N2CC3(COC3)C2)cc1=O [Compound 5] |
| 52 | 23 | O=C(Nc1ccc(OC(F)(F)Cl)cc1)c1cnc(N2CCOCC2)c(-c2ccn(CCO)c(=O)c2)c1 [Compound 8] |
| 9.3 | – | CCn1ccc(-c2cc(C(=O)Nc3ccc(OC(F)(F)Cl)cc3)cnc2N2CCOCC2)cc1=O [Compound 9] |
| 12 | 54 | Cn1ccc(-c2cc(C(=O)Nc3ccc(OC(F)(F)Cl)cc3)cnc2N2CC[C@@H](O)C2)cc1=O [Compound 11] |
| 13 | 33 | Cn1ccc(-c2cc(C(=O)Nc3ccc(OC(F)(F)Cl)cc3)cnc2N2CC[C@H](F)C2)cc1=O [Compound 17] |
| 4.9 | 8.1 | Cn1ccc(-c2cc(C(=O)Nc3ccc(OC(F)(F)Cl)cc3)cnc2N2CC[C@@H](Cl)C2)cc1=O [Compound 18] |
| – | 20 | Cn1ccc(-c2cc(C(=O)Nc3ccc(OC(F)(F)Cl)cc3)cnc2N2C[C@H]3C[C@@H]2CO3)cc1=O [Compound 21] |
| – | 35 | Cn1ccc(-c2cc(C(=O)Nc3ccc(OC(F)(F)Cl)cc3)cnc2N2C[C@@H]3C[C@H]2CO3)cc1=O [Compound 22] |
| 6.3 | 12 | Cn1ccc(-c2cc(C(=O)Nc3ccc(OC(F)(F)Cl)cc3)cnc2N2CCC3(CC2)COC3)cc1=O [Compound 24] |
| 9 | 20 | Cn1ccc(-c2cc(C(=O)Nc3ccc(OC(F)(F)Cl)cc3)cnc2N2CC(C#N)C2)cc1=O [Compound 25] |
| 26 | 53 | Cn1ccc(-c2cc(C(=O)Nc3ccc(OC(F)(F)Cl)cc3)cnc2N2CC(C)(O)C2)cc1=O [Compound 26] |
| 18 | 67 | Cn1ccc(-c2cc(C(=O)Nc3ccc(OC(F)(F)Cl)cc3)cnc2N2C[C@H](O)[C@@H](F)C2)cc1=O [Compound 27] |
| 6.5 | 11 | Cn1ccc(-c2cc(C(=O)Nc3ccc(OC(F)(F)Cl)cc3)cnc2N2CC3CC3C2)cc1=O (stereo not drawn) [Compound 28] |
| 6.8 | 12 | Cn1ccc(-c2cc(C(=O)Nc3ccc(OC(F)(F)Cl)cc3)cnc2N2CCCO2)cc1=O [Compound 29] |
| 10 | 18 | Cn1ccc(-c2cc(C(=O)Nc3ccc(OC(F)(F)Cl)cc3)cnc2N2CC[C@H](C#N)C2)cc1=O [Compound 30] |
| 12 | 21 | Cn1ccc(-c2cc(C(=O)Nc3ccc(OC(F)(F)Cl)cc3)cnc2N2CC[C@@H](C#N)C2)cc1=O [Compound 31] |
| 4.9 | 9.1 | Cn1cc(Cl)c(-c2cc(C(=O)Nc3ccc(OC(F)(F)Cl)cc3)cnc2N2CCOCC2)cc1=O [Compound 33] |
| 20 | 7.8 | Cn1ccc(-c2cc(C(=O)Nc3ccc(OC(F)(F)Cl)cc3)cnc2N2CC3CCC(C2)O3)cc1=O [Compound 34] |
| – | 5.7 | O=C(Nc1ccc(OC(F)(F)Cl)cc1)c1cnc(N2C[C@H]3C[C@@H]2CO3)c(-c2cnn3c2COCC3)c1 [Compound 38] |
| – | 7.4 | O=C(Nc1ccc(OC(F)(F)Cl)cc1)c1cnc(N2C[C@@H]3C[C@H]2CO3)c(-c2cnn3c2COCC3)c1 [Compound 40] |
| 2.1 | 3.4 | CO[C@@H]1CCN(c2ncc(C(=O)Nc3ccc(OC(F)(F)Cl)cc3)cc2-c2cnn3c2COCC3)C1 [Compound 41] |
| 2.3 | 3.5 | O=C(Nc1ccc(OC(F)(F)Cl)cc1)c1cnc(N2CCCC2)c(-c2cnn3c2COCC3)c1 [Compound 42] |
| 2.2 | 4 | O=C(Nc1ccc(OC(F)(F)Cl)cc1)c1cnc(N2CCOCC2)c(-c2cnn3c2COCC3)c1 [Compound 43] |

| IC50 (K562 cells) [nM] | GI50 [1] [nM] | SMILES |
| --- | --- | --- |
| 4.5 | 2.4 | O=C(Nc1ccc(OC(F)(F)Cl)cc1)c1cnc(N2CC3CCC(C2)O3)c(-c2cnn3c2COCC3)c1 [Compound 44] |
| 13 | – | Cn1cnc(-c2cc(C(=O)Nc3ccc(OC(F)(F)Cl)cc3)cnc2N2CC(O)C2)cc1=O [Compound 48] |
| 10 | – | Cn1cnc(-c2cc(C(=O)Nc3ccc(OC(F)(F)Cl)cc3)cnc2N2CC3CCC(C2)O3)cc1=O [Compound 50] |
| 13 | – | Cn1cnc(-c2cc(C(=O)Nc3ccc(OC(F)(F)Cl)cc3)cnc2N2C[C@H]3C[C@@H]2CO3)cc1=O [Compound 51] |
| 26 | – | COCCNc1ncc(C(=O)Nc2ccc(OC(F)(F)Cl)cc2)cc1-c1cc(=O)n(C)cn1 [Compound 55] |
| 59 | – | C[C@H]1COCCN1c1ncc(C(=O)Nc2ccc(OC(F)(F)Cl)cc2)cc1-c1cc(=O)n(C)cn1 [Compound 57] |
| 18 | – | CNc1ncc(C(=O)Nc2ccc(OC(F)(F)Cl)cc2)cc1-c1cc(=O)n(C)cn1 [Compound 62] |
| 31 | – | Cn1cnc(-c2cc(C(=O)Nc3ccc(OC(F)(F)Cl)cc3)cnc2-n2ccnc2)cc1=O [Compound 66] |
| 47 | – | Cn1cnc(-c2cc(C(=O)Nc3ccc(OC(F)(F)Cl)cc3)cnc2-c2ccn[nH]2)cc1=O [Compound 69] |
| 95 | – | COCCOc1ncc(C(=O)Nc2ccc(OC(F)(F)Cl)cc2)cc1-c1cc(=O)n(C)cn1 [Compound 70] |
| 43 | – | COc1ncc(C(=O)Nc2ccc(OC(F)(F)Cl)cc2)cc1-c1cc(=O)n(C)cn1 [Compound 71] |
| 14 | – | Cn1nccc1-c1ncc(C(=O)Nc2ccc(OC(F)(F)Cl)cc2)cc1-c1cc(=O)n(C)cn1 [Compound 73] |
| 13 | – | Cn1cnc(-c2cc(C(=O)Nc3ccc(OC(F)(F)Cl)cc3)cnc2-n2cccn2)cc1=O [Compound 77] |
| 46 | – | CN(C)c1ncc(C(=O)Nc2ccc(OC(F)(F)Cl)cc2)cc1-c1cc(=O)n(CC2CCOCC2)cn1 [Compound 78] |
| 17 | – | Cn1cnc(-c2cc(C(=O)Nc3ccc(OC(F)(F)Cl)cc3)cnc2N2C[C@@H](F)[C@H](F)C2)cc1=O [Compound 79] |
| 14 | – | Cn1cnc(-c2cc(C(=O)Nc3ccc(OC(F)(F)Cl)cc3)cnc2N2CCCO2)cc1=O [Compound 80] |
| 57 | – | Cn1cc(-c2cc(C(=O)Nc3ccc(OC(F)(F)Cl)cc3)cnc2N2CCOCC2)ncc1=O [Compound 82] |
| 45 | – | Cn1cc(-c2cc(C(=O)Nc3ccc(OC(F)(F)Cl)cc3)cnc2N2CCOCC2)ccc1=O [Compound 84] |
| 10 | – | Cn1ncc(-c2cc(C(=O)Nc3ccc(OC(F)(F)Cl)cc3)cnc2N2C[C@H]3C[C@@H]2CO3)cc1=O [Compound 88] |
| 12 | – | C[C@@H]1COCCN1c1ncc(C(=O)Nc2ccc(OC(F)(F)Cl)cc2)cc1-c1cnn2c1COCC2 [Compound 93] |
| 39 | – | CN1Cc2nc(-c3cc(C(=O)Nc4ccc(OC(F)(F)Cl)cc4)cnc3N3CC[C@@H](O)C3)[nH]c2C1=O [Compound 95] |
| 10 | – | CN1CCc2oc(-c3cc(C(=O)Nc4ccc(OC(F)(F)Cl)cc4)cnc3N3CC[C@@H](O)C3)cc2C1=O [Compound 101] |
| – | 76 | O=C(Nc1ccc(OC(F)(F)Cl)cc1)c1cnc(N2CC[C@@H](O)C2)c(-c2cc3nccn3[nH]2)c1 [Compound 102] |

| SMILES | IC50 (K562 cells) [nM] | GI50 [1] [nM] |
| --- | --- | --- |
| Cn1ccc(-c2cc(C(=O)Nc3ccc(OC(F)(F)Cl)cc3)cnc2N2C3COCC2C3)cc1=O [Compound 20] | 31 | 38 |
| Cn1ccc(-c2cc(C(=O)Nc3ccc(OC(F)(F)Cl)cc3)cnc2N2CC3CC(C2)O3)cc1=O [Compound 23] | 10 | 18 |
| Cn1ccc(-c2cc(C(=O)Nc3ccc(OC(F)(F)Cl)cc3)cnc2N2C3CCC2COC3)cc1=O [Compound 35] | 16 | 13 |
| O=C(Nc1ccc(OC(F)(F)Cl)cc1)c1cnc(N2C3CCC2COC3)c(-c2cnn3c2COCC3)c1 [Compound 37] | 7.8 | 16 |
| O=C(Nc1ccc(OC(F)(F)Cl)cc1)c1cnc(N2CC3CC(C2)O3)c(-c2cnn3c2COCC3)c1 [Compound 39] | 5.9 | 2.4 |
| Cn1cnc(-c2cc(C(=O)Nc3ccc(OC(F)(F)Cl)cc3)cnc2N2C3CCC2COC3)cc1=O [Compound 49] | 10 | – |
| Cn1cnc(-c2cc(C(=O)Nc3ccc(OC(F)(F)Cl)cc3)cnc2N2CC3CC(C2)O3)cc1=O [Compound 52] | 6.1 | – |
| CON(C)c1ncc(C(=O)Nc2ccc(OC(F)(F)Cl)cc2)cc1-c1cc(=O)n(C)cn1 [Compound 81] | 10 | – |
| O=C(Nc1ccc(OC(F)(F)Cl)cc1)c1cnc(N2C3COCC2C3)c(-c2cnn3c2COCC3)c1 [Compound 92] | 15 | – |

Source: patent US20240262807A1, “COMPOUND USED AS BCR-ABL INHIBITOR” (CHIA TAI TIANQING PHARMACEUTICAL GROUP CO., LTD., priority 2021, published 2024)
